Assay [1] addresses Mitogen-activated protein kinase kinase kinase 4 (Homo sapiens) (UniProt Q9Y6R4). In words: Selectivity interaction (KinomeScan (DiscoverX)) EUB0000666a MAP3K4. As to conditions: at 10 µM.
In assay [2] the target is Serine/threonine-protein kinase 26 (Homo sapiens, UniProt Q9P289). As to conditions: PBMC, at 1 µM.
In assay [3] the target is T1, Mitogen-activated protein kinase kinase kinase kinase 3 (Homo sapiens) (UniProt Q8IVH8).
T1 sequence (whole entry): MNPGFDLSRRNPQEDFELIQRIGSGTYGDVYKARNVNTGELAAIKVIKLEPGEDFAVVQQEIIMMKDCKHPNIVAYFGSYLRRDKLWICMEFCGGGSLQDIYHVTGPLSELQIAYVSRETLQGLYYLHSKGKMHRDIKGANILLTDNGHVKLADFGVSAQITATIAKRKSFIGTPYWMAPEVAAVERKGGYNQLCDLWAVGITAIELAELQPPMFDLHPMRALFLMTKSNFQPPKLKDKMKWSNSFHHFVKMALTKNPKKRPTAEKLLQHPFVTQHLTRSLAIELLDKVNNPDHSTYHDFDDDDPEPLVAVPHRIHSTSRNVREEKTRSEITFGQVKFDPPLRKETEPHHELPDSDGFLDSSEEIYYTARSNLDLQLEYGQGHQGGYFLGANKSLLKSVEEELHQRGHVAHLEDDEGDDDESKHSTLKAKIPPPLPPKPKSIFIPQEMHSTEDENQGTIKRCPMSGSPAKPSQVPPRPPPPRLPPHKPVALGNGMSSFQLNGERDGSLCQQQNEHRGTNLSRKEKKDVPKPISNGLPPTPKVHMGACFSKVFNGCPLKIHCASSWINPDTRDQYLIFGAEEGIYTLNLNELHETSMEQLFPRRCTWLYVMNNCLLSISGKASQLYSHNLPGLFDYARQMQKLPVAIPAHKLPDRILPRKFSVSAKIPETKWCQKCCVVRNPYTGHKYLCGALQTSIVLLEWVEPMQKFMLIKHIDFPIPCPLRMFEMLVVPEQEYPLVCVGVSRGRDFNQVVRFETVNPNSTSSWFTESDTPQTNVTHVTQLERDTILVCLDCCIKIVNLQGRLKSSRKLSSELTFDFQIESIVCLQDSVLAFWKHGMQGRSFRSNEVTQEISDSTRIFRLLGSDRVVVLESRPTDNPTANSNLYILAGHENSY
Description: Selectivity interaction (KinomeScan (DiscoverX)) EUB0000695a MAP4K3. As to conditions: at 100 nM.

Assay [4] has as its target Serine/threonine-protein kinase OSR1 (Homo sapiens) (UniProt O95747). In words: Selectivity interaction (KinomeScan (DiscoverX)) EUB0000695a OXSR1. As to conditions: at 100 nM.
Assay [5] addresses T2, Alpha-1B adrenergic receptor (Homo sapiens) (UniProt P35368).
T2 sequence (whole entry): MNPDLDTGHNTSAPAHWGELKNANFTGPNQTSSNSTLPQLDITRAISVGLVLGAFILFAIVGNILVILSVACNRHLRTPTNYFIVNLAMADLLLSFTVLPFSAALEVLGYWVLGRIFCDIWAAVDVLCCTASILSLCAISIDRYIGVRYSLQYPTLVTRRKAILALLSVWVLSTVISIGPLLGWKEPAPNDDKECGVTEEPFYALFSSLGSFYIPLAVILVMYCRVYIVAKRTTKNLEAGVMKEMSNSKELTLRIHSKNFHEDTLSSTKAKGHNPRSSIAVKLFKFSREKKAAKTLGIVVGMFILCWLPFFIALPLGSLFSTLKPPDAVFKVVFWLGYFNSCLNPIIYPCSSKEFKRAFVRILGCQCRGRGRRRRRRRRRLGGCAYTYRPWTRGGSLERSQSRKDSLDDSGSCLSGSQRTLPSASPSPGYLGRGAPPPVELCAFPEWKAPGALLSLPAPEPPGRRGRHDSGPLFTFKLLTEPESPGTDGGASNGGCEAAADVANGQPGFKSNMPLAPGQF
Description: Selectivity interaction (Panel of kinases, GPCRs, ion channels and transporters (enzymatic assay)) EUB0000223bCl ADRA1B.

In assay [6] the target is T3, Ephrin type-A receptor 3 (Homo sapiens) (UniProt P29320).
T3 sequence (whole entry): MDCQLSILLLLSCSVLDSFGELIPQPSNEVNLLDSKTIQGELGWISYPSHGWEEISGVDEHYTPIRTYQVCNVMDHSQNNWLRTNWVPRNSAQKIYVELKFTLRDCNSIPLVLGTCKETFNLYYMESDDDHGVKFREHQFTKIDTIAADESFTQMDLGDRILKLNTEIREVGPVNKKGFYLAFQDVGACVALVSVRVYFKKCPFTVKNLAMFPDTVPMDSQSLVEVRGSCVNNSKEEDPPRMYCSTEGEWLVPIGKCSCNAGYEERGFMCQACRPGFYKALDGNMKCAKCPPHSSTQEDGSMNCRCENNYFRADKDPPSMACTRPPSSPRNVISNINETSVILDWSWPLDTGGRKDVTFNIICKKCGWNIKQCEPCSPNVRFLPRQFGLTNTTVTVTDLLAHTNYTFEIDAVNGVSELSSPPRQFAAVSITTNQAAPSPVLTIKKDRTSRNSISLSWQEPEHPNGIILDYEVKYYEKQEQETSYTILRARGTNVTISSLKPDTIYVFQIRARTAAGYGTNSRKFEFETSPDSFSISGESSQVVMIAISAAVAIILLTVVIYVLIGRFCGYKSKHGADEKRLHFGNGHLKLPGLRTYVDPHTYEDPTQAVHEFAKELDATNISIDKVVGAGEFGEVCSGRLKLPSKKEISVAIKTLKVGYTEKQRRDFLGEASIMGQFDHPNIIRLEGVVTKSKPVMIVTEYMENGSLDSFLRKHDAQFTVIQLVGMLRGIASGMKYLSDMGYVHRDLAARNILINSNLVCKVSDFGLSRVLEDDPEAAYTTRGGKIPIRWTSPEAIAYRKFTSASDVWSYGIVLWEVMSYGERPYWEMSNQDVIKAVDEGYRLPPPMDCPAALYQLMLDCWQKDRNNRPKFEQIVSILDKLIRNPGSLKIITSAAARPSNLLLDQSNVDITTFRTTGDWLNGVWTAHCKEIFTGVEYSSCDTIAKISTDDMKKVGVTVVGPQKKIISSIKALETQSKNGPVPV
Description: Selectivity interaction (Upstate Kinase Profiler service (Millipore)) EUB0000056c EPHA3. As to conditions: at 1 µM.

Sequence of Mitogen-activated protein kinase kinase kinase 4 (Homo sapiens) (Q9Y6R4 whole entry): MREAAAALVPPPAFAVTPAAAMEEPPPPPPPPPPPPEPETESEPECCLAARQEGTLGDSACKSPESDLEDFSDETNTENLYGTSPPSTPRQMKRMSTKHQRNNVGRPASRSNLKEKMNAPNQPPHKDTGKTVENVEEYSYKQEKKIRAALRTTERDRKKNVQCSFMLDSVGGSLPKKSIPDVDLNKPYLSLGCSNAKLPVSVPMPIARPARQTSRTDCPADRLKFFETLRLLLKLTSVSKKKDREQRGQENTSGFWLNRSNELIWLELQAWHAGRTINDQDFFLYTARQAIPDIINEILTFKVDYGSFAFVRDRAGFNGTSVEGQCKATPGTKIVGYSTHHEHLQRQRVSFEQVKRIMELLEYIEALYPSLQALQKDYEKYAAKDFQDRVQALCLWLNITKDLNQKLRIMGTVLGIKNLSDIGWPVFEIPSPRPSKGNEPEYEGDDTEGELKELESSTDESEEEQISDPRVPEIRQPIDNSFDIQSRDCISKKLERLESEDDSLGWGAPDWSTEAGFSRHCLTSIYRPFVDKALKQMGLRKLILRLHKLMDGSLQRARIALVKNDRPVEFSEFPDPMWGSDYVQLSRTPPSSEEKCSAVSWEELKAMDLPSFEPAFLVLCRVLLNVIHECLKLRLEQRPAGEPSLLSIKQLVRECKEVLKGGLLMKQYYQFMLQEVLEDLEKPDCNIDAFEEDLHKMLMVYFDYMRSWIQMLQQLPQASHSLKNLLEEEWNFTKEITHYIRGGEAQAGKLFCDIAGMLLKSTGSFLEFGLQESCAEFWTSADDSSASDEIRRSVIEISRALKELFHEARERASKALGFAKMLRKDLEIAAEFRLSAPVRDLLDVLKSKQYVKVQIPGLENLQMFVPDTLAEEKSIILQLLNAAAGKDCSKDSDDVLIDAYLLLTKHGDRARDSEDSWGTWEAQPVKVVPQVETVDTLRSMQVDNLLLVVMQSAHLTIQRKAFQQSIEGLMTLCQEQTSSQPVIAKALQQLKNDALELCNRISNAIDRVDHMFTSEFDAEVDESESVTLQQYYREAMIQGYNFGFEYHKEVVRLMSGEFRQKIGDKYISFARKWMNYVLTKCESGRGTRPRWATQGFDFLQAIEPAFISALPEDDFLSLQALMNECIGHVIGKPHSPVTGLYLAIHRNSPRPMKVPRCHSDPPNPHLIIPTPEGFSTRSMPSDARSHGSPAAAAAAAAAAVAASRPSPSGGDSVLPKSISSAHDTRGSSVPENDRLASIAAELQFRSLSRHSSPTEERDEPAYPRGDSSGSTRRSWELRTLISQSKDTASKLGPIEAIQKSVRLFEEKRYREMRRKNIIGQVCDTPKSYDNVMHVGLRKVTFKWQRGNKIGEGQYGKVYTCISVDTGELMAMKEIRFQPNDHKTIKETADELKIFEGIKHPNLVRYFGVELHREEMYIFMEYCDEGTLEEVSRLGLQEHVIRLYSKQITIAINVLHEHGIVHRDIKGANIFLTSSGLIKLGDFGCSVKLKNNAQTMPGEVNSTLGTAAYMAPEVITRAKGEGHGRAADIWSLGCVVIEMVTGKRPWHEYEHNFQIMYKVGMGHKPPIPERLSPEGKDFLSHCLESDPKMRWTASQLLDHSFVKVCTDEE
Sequence of Serine/threonine-protein kinase 26 (Q9P289 2-416 limits assumed): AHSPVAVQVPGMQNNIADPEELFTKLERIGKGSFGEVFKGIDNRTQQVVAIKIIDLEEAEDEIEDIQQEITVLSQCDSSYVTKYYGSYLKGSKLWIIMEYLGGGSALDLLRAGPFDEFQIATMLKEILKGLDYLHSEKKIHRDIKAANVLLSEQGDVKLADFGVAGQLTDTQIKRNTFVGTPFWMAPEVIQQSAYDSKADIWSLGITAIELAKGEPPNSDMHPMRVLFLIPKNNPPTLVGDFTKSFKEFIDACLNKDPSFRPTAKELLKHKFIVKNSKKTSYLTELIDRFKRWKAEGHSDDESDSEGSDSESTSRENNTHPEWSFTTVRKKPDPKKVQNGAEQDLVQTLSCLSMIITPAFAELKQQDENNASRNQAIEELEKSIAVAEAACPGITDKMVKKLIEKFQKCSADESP
Sequence of Serine/threonine-protein kinase OSR1 (Homo sapiens) (O95747 2-527 limits assumed): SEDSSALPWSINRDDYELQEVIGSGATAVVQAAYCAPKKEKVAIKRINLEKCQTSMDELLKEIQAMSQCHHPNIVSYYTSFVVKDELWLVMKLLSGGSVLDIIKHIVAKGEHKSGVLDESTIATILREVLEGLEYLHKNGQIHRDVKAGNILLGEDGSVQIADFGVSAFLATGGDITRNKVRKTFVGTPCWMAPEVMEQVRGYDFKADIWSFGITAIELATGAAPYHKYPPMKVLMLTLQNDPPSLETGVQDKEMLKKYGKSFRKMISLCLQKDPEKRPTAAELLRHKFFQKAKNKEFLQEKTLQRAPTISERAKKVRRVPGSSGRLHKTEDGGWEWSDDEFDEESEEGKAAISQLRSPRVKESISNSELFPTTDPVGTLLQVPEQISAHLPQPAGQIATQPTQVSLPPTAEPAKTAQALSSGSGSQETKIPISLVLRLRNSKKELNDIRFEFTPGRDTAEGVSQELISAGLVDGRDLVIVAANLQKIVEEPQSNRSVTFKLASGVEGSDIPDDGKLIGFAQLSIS

Regarding `O=C(NOC[C@H](O)CO)c1ccc(F)c(F)c1Nc1ccc(I)cc1F`, the % of control in assay [1] was 100%. Regarding `N#Cc1cccc(-c2c[nH]c3ncnc(N4CCOCC4)c23)c1`, the % of inhibition in assay [2] turned out to be 65%. `Cc1cc(F)c(C(=O)Nc2cccc(-c3nncn3C(C)C)n2)cc1-n1cnc(C2CC2)c1`: the % of control in assay [3] is 70%; in assay [4], 86%.

On to `COc1cc(C(=O)N2CC[C@@H](O)[C@@H](N)C2)cc2nc(-c3cc4ccccc4n3CC3CC3)n(C)c12`, for which, in assay [5], the pXC50 was found to be 4.9 M. Take `Cc1ccc(-c2ccc3c(ccc4sc5c(c43)NC[C@@H](C)NC5=O)n2)cn1`: the % of inhibition in assay [6] was -1%.

These data come from ChEMBL document CHEMBL5465560, “Selectivity Literature for EUbOPEN Chemogenomic Library” (2024).
